Experimental data as given in the supplement of paper PMC4862054.

Assays:
Conditions in all cases: incubation time: 72 h
MDA-MB-231 = test: normalised response (% of control), CellTox Green; higher = less cell death (100 = DMSO, 0 = benzethonium chloride kill control)
Procedure, shortened: (§1)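 Each entry is the normalised signal at a single concentration within a series. The series comprised 5 concentrations in 10-fold steps over a compound-specific 10,000-fold range, placed in 384-well plates into which breast cancer cell lines were seeded as 20 µl suspension and incubated 72 h. CellTox Green (485/520 nm) fluorescence and then CellTiter-Glo luminescence were read, with signals normalised per plate to 0.1 % DMSO (100) and a positive kill control (0).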

MFM-223 = test: as above
Procedure, shortened: as §1

MDA-MB-453 [1] = test: as above
Procedure, shortened: as §1

BT-474 = test: as above
Procedure, shortened: as §1

CAL-85-1 [2] = test: as above
Procedure, shortened: as §1

HCC1143 = test: as above
Procedure, shortened: as §1

MCF-10A = test: as above
Procedure, shortened: as §1

MDA-MB-468 = test: as above
Procedure, shortened: as §1

CAL-120 = test: as above
Procedure, shortened: as §1

HCC1937 = test: as above
Procedure, shortened: as §1

HDQ-P1 [3] = test: as above
Procedure, shortened: as §1

DU-4475 [4] = test: as above
Procedure, shortened: as §1

CAL-148 [5] = test: as above
Procedure, shortened: as §1

Hs578T = test: as above
Procedure, shortened: as §1

CAL-51 [6] = test: as above
Procedure, shortened: as §1

BT-549 = test: as above
Procedure, shortened: as §1

HCC1599 = test: as above
Procedure, shortened: as §1

MDA-MB-436 = test: as above
Procedure, shortened: as §1

MDA-MB-453 [7] = test: normalised viability (% of control), CellTiter-Blue; higher = more viable cells (about 100 = DMSO control)
Procedure, shortened: (§2)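 384-well plates were pre-loaded with compound in 5 µl medium before 20 µl of breast cancer cell suspension was seeded. Following 72 h incubation, 2.5 µl CellTiter-Blue reagent was added for 2 h at 37 °C. Fluorescence was read at 560/590 nm and plates were normalised to vehicle (100) and a positive kill control (0), checked by Z'-factor. Normalised viability is reported at a single listed concentration of the series.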

CAL-85-1 [8] = test: as above
Procedure, shortened: as §2

HDQ-P1 [9] = test: as above
Procedure, shortened: as §2

DU-4475 [10] = test: as above
Procedure, shortened: as §2

CAL-148 [11] = test: as above
Procedure, shortened: as §2

CAL-51 [12] = test: as above
Procedure, shortened: as §2

Work on `CN[C@@H]1C[C@H]2O[C@@](C)([C@@H]1OC)n1c3ccccc3c3c4c(c5c6ccccc6n2c5c31)C(=O)N[C@H]4O` [UCN-01] (1000 nM) yielded a normalised response (MDA-MB-231) of 32.6%, a normalised response (MFM-223) of 67.8% and a normalised response (MDA-MB-453 [1]) of 91.4%. For the same compound, the normalised response (BT-474) was 70.9%, the normalised response (CAL-85-1 [2]) was 29.5% and the normalised response (HCC1143) was 53.2%. The normalised response (MCF-10A) was -24.5%, the normalised response (MDA-MB-468) was 59.7% and the normalised response (CAL-120) was 59.7%. The normalised response (HCC1937) was 106%, the normalised response (HDQ-P1 [3]) was 63.7% and the normalised response (DU-4475 [4]) was 78.3%. It also gave a normalised response (CAL-148 [5]) of 89.2%, a normalised response (Hs578T) of 47.3% and a normalised response (CAL-51 [6]) of 40.2%. It also gave a normalised response (BT-549) of 78.7%, a normalised response (HCC1599) of 79.3% and a normalised response (MDA-MB-436) of 94.5%. The normalised viability (MDA-MB-453 [7]) was 30.2%, the normalised viability (CAL-85-1 [8]) was 33.7% and the normalised viability (HDQ-P1 [9]) was 32.1%. The normalised viability (DU-4475 [10]) was 10.1%, the normalised viability (CAL-148 [11]) was 81.5% and the normalised viability (CAL-51 [12]) was 16.8%.
`Clc1ccc(Nc2nnc(Cc3ccncc3)c3ccccc23)cc1` [Vatalanib] (1000 nM) was tested, and the normalised response (MDA-MB-231) was 118%, the normalised response (MFM-223) was 103% and the normalised response (MDA-MB-453 [1]) was 104%. The normalised response (BT-474) was 97.2%, the normalised response (CAL-85-1 [2]) was 104% and the normalised response (HCC1143) was 64.7%. For the same compound, the normalised response (MCF-10A) was 84.5%, the normalised response (MDA-MB-468) was 138% and the normalised response (CAL-120) was 92.8%. The normalised response (HCC1937) was 134%, the normalised response (HDQ-P1 [3]) was 105% and the normalised response (DU-4475 [4]) was 101%. For the same compound, the normalised response (CAL-148 [5]) was 98.1%, the normalised response (Hs578T) was 105% and the normalised response (CAL-51 [6]) was 109%. The normalised response (BT-549) was 137%, the normalised response (HCC1599) was 104% and the normalised response (MDA-MB-436) was 102%. For the same compound, the normalised viability (MDA-MB-453 [7]) was 91.6%, the normalised viability (CAL-85-1 [8]) was 92.5% and the normalised viability (HDQ-P1 [9]) was 98.6%. For the same compound, the normalised viability (DU-4475 [10]) was 97.8%, the normalised viability (CAL-148 [11]) was 83.4% and the normalised viability (CAL-51 [12]) was 101%.
With `CCC1=C[C@@H]2CN(C1)Cc1c([nH]c3ccccc13)[C@@](C(=O)OC)(c1cc3c(cc1OC)N(C)[C@H]1[C@@](O)(C(=O)OC)[C@H](OC(C)=O)[C@]4(CC)C=CCN5CC[C@]31[C@@H]54)C2` [Vinorelbine] (1000 nM) the normalised response (MDA-MB-231) was 20.9%, the normalised response (MFM-223) was 55.2% and the normalised response (MDA-MB-453 [1]) was 101%. For the same compound, the normalised response (BT-474) was 61.2%, the normalised response (CAL-85-1 [2]) was 68.7% and the normalised response (HCC1143) was 104%. The normalised response (MCF-10A) was 26.6%, the normalised response (MDA-MB-468) was 98.1% and the normalised response (CAL-120) was 91.7%. For the same compound, the normalised response (HCC1937) was 92.5%, the normalised response (HDQ-P1 [3]) was -18.4% and the normalised response (DU-4475 [4]) was 96.7%. For the same compound, the normalised response (CAL-148 [5]) was 54.8%, the normalised response (Hs578T) was 27.5% and the normalised response (CAL-51 [6]) was 18.8%. The normalised response (BT-549) was 63.8%, the normalised response (HCC1599) was 79.5% and the normalised response (MDA-MB-436) was 76.9%. The normalised viability (MDA-MB-453 [7]) was 28%, the normalised viability (CAL-85-1 [8]) was 37.5% and the normalised viability (HDQ-P1 [9]) was 38.6%. It also gave a normalised viability (DU-4475 [10]) of 29%, a normalised viability (CAL-148 [11]) of 21.1% and a normalised viability (CAL-51 [12]) of 19.7%.
With `Oc1nc(-c2ccc(C(F)(F)F)cc2)nc2c1CSCC2` [XAV-939] (1000 nM) the normalised response (MDA-MB-231) was 102%, the normalised response (MFM-223) was 99.9% and the normalised response (MDA-MB-453 [1]) was 102%. The normalised response (BT-474) was 101%, the normalised response (CAL-85-1 [2]) was 103% and the normalised response (HCC1143) was 96.1%. For the same compound, the normalised response (MCF-10A) was 67.7%, the normalised response (MDA-MB-468) was 118% and the normalised response (CAL-120) was 102%. It also gave a normalised response (HCC1937) of 114%, a normalised response (HDQ-P1 [3]) of 77.1% and a normalised response (DU-4475 [4]) of 101%. The normalised response (CAL-148 [5]) was 101%, the normalised response (Hs578T) was 88.9% and the normalised response (CAL-51 [6]) was 102%. The normalised response (BT-549) was 106%, the normalised response (HCC1599) was 100% and the normalised response (MDA-MB-436) was 102%. It also gave a normalised viability (MDA-MB-453 [7]) of 90.3%, a normalised viability (CAL-85-1 [8]) of 81.8% and a normalised viability (HDQ-P1 [9]) of 103%. The normalised viability (DU-4475 [10]) was 108%, the normalised viability (CAL-148 [11]) was 101% and the normalised viability (CAL-51 [12]) was 93.2%.
